Where a name gives a salt, the structure may show the parent alone.
What was measured:
[1] = PAMPA with synthetic phospholipid membrane, decyl chain (C10); assay type: in vitro ADME; details: for Papp at 16 h: PAMPA, read-out: P e
Procedure: (§1) In PAMPA, a “sandwich” structure was formed by a 96-well microtiter plate and a 96-well filter plate from Millipore (IPVH, 125 μm thick filter, 0.45 μm pore), then wetted with a 4 μl 2% w/v phospholipid compound solution in n-dodecane [27].
(§2) The stock solutions of the drug samples were prepared at 10 mM concentrations in DMSO and stored at 0°C before use. Before being added to a 96-well filter plate, the stock solution was diluted first with buffer to achieve a final sample concentration of 10∼50 μM and to reduce the DMSO concentration below 1% (v/v).
(§3) The PAMPA plate was filled with a 300 μl diluted drug solution to prepare the “donor” wells, and the 96-well filter plate containing a synthetic phospholipid membrane was then placed on the donor wells. The “acceptor” wells were filled with 200 μl of buffer solution and placed on top of the “sandwich”, and the PAMPA instruments were incubated at 25°C in a sealed and saturated humidity container for a specified time. After reaching the permeation time, the PAMPA plate sandwich was separated, and the amount of drugs in both the donor and acceptor compartments were measured by comparing the experimental spectra with the UV spectrum (220∼400 nm) obtained from reference standards.
(§4) The factor S was the fraction of samples remaining in the donor and the acceptor wells at time t.
(§5) In the incubation time assays, the pH was 7.4 in both the donor and acceptor wells. In the pH-gradient assays, the pH of the drug solutions was varied using NaOH-treated universal buffer (pION Inc.) in the donor wells, and the pH in the acceptor solution was pH 7.4 [15]. In addition, the incubation time in the pH-gradient test assays was 16 h.

[2] = parameters: method as in Chinese Pharmacopoeia, 2005 edition and references 15, 27, 38; details: ref Chinese Pharmacopoeia, 2005 edition and references 15, 27, 38; cited from earlier work
[3] = PAMPA with synthetic phospholipid membrane, octyl chain (C8); assay type: in vitro ADME; details: for Papp at 16 h: PAMPA, read-out: P e
Procedure: as §1, §2, §3, §4, §5

[4] = PAMPA with synthetic phospholipid membrane, lauryl chain (C12); assay type: in vitro ADME; details: for Papp at 16 h: PAMPA, read-out: P e
Procedure: as §1, §2, §3, §4, §5

[5] = parameters: method as in PMID 11576780, PMID 9691477; details: cited from earlier work
[6] = parameters: method as in DrugBank database; details: ref DrugBank database; cited from earlier work
[7] = C10, donor pH 4.6, acceptor pH 7.4, 16 h
[8] = C10, donor pH 4.98, acceptor pH 7.4, 16 h
[9] = C10, donor pH 6.57, acceptor pH 7.4, 16 h
[10] = C10, donor pH 8.2, acceptor pH 7.4, 16 h
[11] = C10, donor pH 9.32, acceptor pH 7.4, 16 h
[12] = pH 7.4, C10 membrane, incubation time 16 h, pH 7.4 donor and acceptor, 25°C
[13] = C8, donor pH 4.6, acceptor pH 7.4, 16 h
[14] = C8, donor pH 4.98, acceptor pH 7.4, 16 h
[15] = C8, donor pH 6.57, acceptor pH 7.4, 16 h
[16] = C8, donor pH 8.2, acceptor pH 7.4, 16 h
[17] = C8, donor pH 9.32, acceptor pH 7.4, 16 h
[18] = pH 7.4, C8 membrane, incubation time 16 h, pH 7.4 donor and acceptor, 25°C
[19] = C12, donor pH 4.6, acceptor pH 7.4, 16 h
[20] = C12, donor pH 4.98, acceptor pH 7.4, 16 h
[21] = C12, donor pH 6.57, acceptor pH 7.4, 16 h
[22] = C12, donor pH 8.2, acceptor pH 7.4, 16 h
[23] = C12, donor pH 9.32, acceptor pH 7.4, 16 h
[24] = pH 7.4, C12 membrane, incubation time 16 h, pH 7.4 donor and acceptor, 25°C

Row | Structure (SMILES) | P e [1, 7] | P e [1, 8] | P e [1, 9] | P e [1, 10] | P e [1, 11] | Papp at 16 h [1, 12] [×10⁻⁶ cm/s] | P e [3, 14] | P e [3, 15] | P e [3, 16] | P e [3, 17] | Papp at 16 h [3, 18] [×10⁻⁶ cm/s] | P e [4, 19] | P e [4, 20] | P e [4, 21] | P e [4, 22] | P e [4, 23] | Papp at 16 h [4, 24] [×10⁻⁶ cm/s] | Papp at 16 h [1, 8] [×10⁻⁶ cm/s] | Papp at 16 h [3, 13] [×10⁻⁶ cm/s] | Water solubility [6] [mg] | further results
1 | CC1(C)S[C@@H]2[C@H](NC(=O)[C@H](N)c3ccc(O)cc3)C(=O)N2[C@H]1C(=O)O [Amoxicillin] | 1.9 ×10^–7 cm/s | 2.1 ×10^–7 cm/s | 2.5 ×10^–7 cm/s | 2.3 ×10^–7 cm/s | 2.2 ×10^–7 cm/s | 5.3 ± 0.3 | 2.1 ×10^–7 cm/s | 2.6 ×10^–7 cm/s | 2.4 ×10^–7 cm/s | 2.2 ×10^–7 cm/s | 4.6 ± 0.4 | 1.9 ×10^–7 cm/s | 2.1 ×10^–7 cm/s | 2.6 ×10^–7 cm/s | 2.3 ×10^–7 cm/s | 2.0 ×10^–7 cm/s | 5.7 ± 0.4 |  |  |  | pKa (second value listed) [2]: 7.31; pKa (third value listed) [2]: 9.53; P e [3, 13]: 1.9 ×10^–7 cm/s; %FA (human fraction absorbed) [5]: 93%
2 | O=C(N[C@H](CO)[C@H](O)c1ccc([N+](=O)[O-])cc1)C(Cl)Cl [Chloroamphenicol] |  |  |  |  | 0.5 ×10^–6 cm/s | 9.8 ± 0.3 | 4.2 ×10^–6 cm/s |  |  |  | 8.8 ± 0.2 |  | 4.2 ×10^–6 cm/s |  | 0.7 ×10^–6 cm/s | 0.5 ×10^–6 cm/s | 14.6 ± 0.3 | 4 | 4.3 |  | Papp at 16 h [1, 7]: 4.2 ×10⁻⁶ cm/s; Papp at 16 h [1, 9]: 1 ×10⁻⁶ cm/s; Papp at 16 h [1, 10]: 0.7 ×10⁻⁶ cm/s; pKa (first value listed) [2]: 4.3; Papp at 16 h [3, 15]: 1.7 ×10⁻⁶ cm/s; Papp at 16 h [3, 16]: 0.6 ×10⁻⁶ cm/s; Papp at 16 h [3, 17]: 0.5 ×10⁻⁶ cm/s; Papp at 16 h [4, 19]: 4.4 ×10⁻⁶ cm/s; Papp at 16 h [4, 21]: 1.5 ×10⁻⁶ cm/s
3 | CN/C(=N/CCSCc1nc[nH]c1C)NC#N [Cimetidine] | 1.8 ×10^–6 cm/s |  | 2.6 ×10^–6 cm/s |  |  | 2.8 ± 0.3 |  | 2.6 ×10^–6 cm/s | 3.2 ×10^–6 cm/s |  | 2.6 ± 0.4 | 1.8 ×10^–6 cm/s | 1.9 ×10^–6 cm/s |  | 3.2 ×10^–6 cm/s | 3.4 ×10^–6 cm/s | 3.2 ± 0.3 | 1.9 | 1.8 | 9380 | Papp at 16 h [1, 10]: 3.1 ×10⁻⁶ cm/s; Papp at 16 h [1, 11]: 3.4 ×10⁻⁶ cm/s; pKa (first value listed) [2]: 7.23; Papp at 16 h [3, 14]: 1.6 ×10⁻⁶ cm/s; Papp at 16 h [3, 17]: 3.7 ×10⁻⁶ cm/s; Papp at 16 h [4, 21]: 2.7 ×10⁻⁶ cm/s; %FA (human fraction absorbed) [5]: 85%
4 | CC(C)Cc1ccc(C(C)C(=O)O)cc1 (centres unmarked) [Ibuprofen] | 23.0 ×10^–6 cm/s |  |  |  | 2.6 ×10^–6 cm/s | 14.5 ± 0.5 |  |  |  |  | 13.9 ± 0.5 |  | 23.0 ×10^–6 cm/s |  | 1.5 ×10^–6 cm/s | 2.6 ×10^–6 cm/s | 16.7 ± 0.4 | 22 | 23 | 21 | Papp at 16 h [1, 9]: 7 ×10⁻⁶ cm/s; Papp at 16 h [1, 10]: 1.5 ×10⁻⁶ cm/s; Papp at 16 h [3, 14]: 23.5 ×10⁻⁶ cm/s; Papp at 16 h [3, 15]: 8.5 ×10⁻⁶ cm/s; Papp at 16 h [3, 16]: 3 ×10⁻⁶ cm/s; Papp at 16 h [3, 17]: 2.6 ×10⁻⁶ cm/s; Papp at 16 h [4, 19]: 22.5 ×10⁻⁶ cm/s; Papp at 16 h [4, 21]: 7.5 ×10⁻⁶ cm/s
5 | CN(C)C(=N)N=C(N)N [Metformin Hydrochloride] | 1.5 ×10^–7 cm/s | 1.6 ×10^–7 cm/s | 3.2 ×10^–7 cm/s | 5.8 ×10^–7 cm/s | 7.2 ×10^–7 cm/s | 2.9 ± 0.3 | 1.6 ×10^–7 cm/s | 3.2 ×10^–7 cm/s | 4.9 ×10^–7 cm/s | 7.4 ×10^–7 cm/s | 2.4 ± 0.4 | 1.6 ×10^–7 cm/s | 1.7 ×10^–7 cm/s | 3.1 ×10^–7 cm/s | 4.9 ×10^–7 cm/s | 7.3 ×10^–7 cm/s | 3.4 ± 0.2 |  |  |  | P e [3, 13]: 1.5 ×10^–7 cm/s
6 | COCCc1ccc(OCC(O)CNC(C)C)cc1 (centres unmarked) [Metoprolol Tartrate] | 1.4 ×10^–5 cm/s | 2.5 ×10^–5 cm/s | 5.3 ×10^–5 cm/s | 7.5 ×10^–5 cm/s | 9.3 ×10^–5 cm/s | 10.3 ± 0.5 | 2.7 ×10^–5 cm/s | 5.1 ×10^–5 cm/s | 8.0 ×10^–5 cm/s | 8.9 ×10^–5 cm/s | 9.2 ± 0.6 | 1.6 ×10^–5 cm/s | 2.6 ×10^–5 cm/s | 5.0 ×10^–5 cm/s | 8.0 ×10^–5 cm/s | 9.1 ×10^–5 cm/s | 11.7 ± 0.5 |  |  | 16900 | 
7 | CCn1cc(C(=O)O)c(=O)c2cc(F)c(N3CCNCC3)cc21 [Norfloxacin] | 1.9 ×10^–6 cm/s |  |  | 2.5 ×10^–6 cm/s | 2.3 ×10^–6 cm/s | 1 ± 0.1 |  |  | 2.5 ×10^–6 cm/s | 2.2 ×10^–6 cm/s | 0.9 ± 0.1 |  | 2.2 ×10^–6 cm/s | 2.6 ×10^–6 cm/s | 2.6 ×10^–6 cm/s | 2.2 ×10^–6 cm/s |  | 2.2 | 1.9 | 178000 | Papp at 16 h [1, 9]: 2.5 ×10⁻⁶ cm/s; pKa (first value listed) [2]: 6.26; Papp at 16 h [3, 14]: 2.3 ×10⁻⁶ cm/s; Papp at 16 h [3, 15]: 2.6 ×10⁻⁶ cm/s; P e ([4]; C12 membrane, incubation time 16 h, pH 7.4 donor and acceptor, 25°C): 1.0±0.1 10^−6 cm/s; Papp at 16 h [4, 19]: 1.8 ×10⁻⁶ cm/s
8 | CNC(=C[N+](=O)[O-])NCCSCc1ccc(CN(C)C)o1 [Ranitidine] | 1.6 ×10^–7 cm/s | 1.8 ×10^–7 cm/s | 3.1 ×10^–7 cm/s | 5.8 ×10^–7 cm/s | 5.5 ×10^–7 cm/s | 1.4 ± 0.1 | 1.8 ×10^–7 cm/s | 3.2 ×10^–7 cm/s | 4.9 ×10^–7 cm/s |  | 1.2 ± 0.1 | 1.6 ×10^–7 cm/s | 1.8 ×10^–7 cm/s | 3.2 ×10^–7 cm/s | 4.9 ×10^–7 cm/s | 5.4 ×10^–7 cm/s | 1.5 ± 0.1 |  |  | 24.7 | P e [3, 13]: 1.6 ×10^–7 cm/s; %FA (human fraction absorbed) [5]: 55%

Reference: publication PMC4315410, “A New PAMPA Model Proposed on the Basis of a Synthetic Phospholipid Membrane” (PLoS ONE, 2015)
